Measured values: patent US20070036839A1, “Phosphorylated glucomannane polysaccharides containing 1-6 and 1-2 linkages increase weight gain in poultry” (priority 2005, published 2007)

Assay: Weekly hematology (CBC with differential); on Red Blood Cells HCT: test concentration or dose not given here; on White Blood Cells BASO: test concentration or dose not given here; on White Blood Cells EOS: test concentration or dose not given here; on White Blood Cells LYMP + MONO: test concentration or dose not given here; on White Blood Cells NEUT: test concentration or dose not given here; on White Blood Cells WBC: test concentration or dose not given here
Format: in vivo, Male Ross x Ross broiler chickens

## Candida utilis phosphoglucomannan-soy bean proteins [CUPS]
Day 3, dose group 1
  Others Het/Poly: 19.75%
  Red Blood Cells HCT: 30.67%
  White Blood Cells BASO: 127.50 X/uL
  White Blood Cells EOS: 0.00 X/uL
  White Blood Cells LYMP + MONO: 2590.00 X/uL
  White Blood Cells NEUT: 782.50 X/uL
  White Blood Cells WBC: 3000 µL⁻¹
Day 3, dose group 3
  Others Het/Poly: 31.67%
  Red Blood Cells HCT: 27.80%
  White Blood Cells BASO: 45.00 X/uL
  White Blood Cells EOS: 0.00 X/uL
  White Blood Cells LYMP + MONO: 2060.00 X/uL
  White Blood Cells NEUT: 1061.67 X/uL
  White Blood Cells WBC: 3170 µL⁻¹
Day 3, dose group 20
  Others Het/Poly: 27.00%
  Red Blood Cells HCT: 27.00%
  White Blood Cells BASO: 16.00 X/uL
  White Blood Cells EOS: 16.00 X/uL
  White Blood Cells LYMP + MONO: 2950.00 X/uL
  White Blood Cells NEUT: 818.00 X/uL
  White Blood Cells WBC: 3800 µL⁻¹
Day 7, dose group 1
  Others Het/Poly: 45.00%
  White Blood Cells BASO: 0.00 X/uL
  White Blood Cells EOS: 0.00 X/uL
  White Blood Cells LYMP + MONO: 5500.00 X/uL
  White Blood Cells NEUT: 4500.00 X/uL
  White Blood Cells WBC: 10000 µL⁻¹
Day 7, dose group 3
  Others Het/Poly: 19.67%
  White Blood Cells BASO: 146.67 X/uL
  White Blood Cells EOS: 0.00 X/uL
  White Blood Cells LYMP + MONO: 5273.33 X/uL
  White Blood Cells NEUT: 1246.67 X/uL
  White Blood Cells WBC: 6670 µL⁻¹
Day 7, dose group 20
  Others Het/Poly: 33.00%
  White Blood Cells BASO: 180.00 X/uL
  White Blood Cells EOS: 0.00 X/uL
  White Blood Cells LYMP + MONO: 4513.33 X/uL
  White Blood Cells NEUT: 2306.67 X/uL
  White Blood Cells WBC: 7000 µL⁻¹
Day 15, dose group 1
  Others Het/Poly: 37.00%
  Red Blood Cells HCT: 32.00%
  White Blood Cells BASO: 266.67 X/uL
  White Blood Cells EOS: 0.00 X/uL
  White Blood Cells LYMP + MONO: 6963.33 X/uL
  White Blood Cells NEUT: 4436.67 X/uL
  White Blood Cells WBC: 11670 µL⁻¹
Day 15, dose group 3
  Others Het/Poly: 30.67%
  Red Blood Cells HCT: 29.00%
  White Blood Cells BASO: 406.67 X/uL
  White Blood Cells EOS: 0.00 X/uL
  White Blood Cells LYMP + MONO: 8000.00 X/uL
  White Blood Cells NEUT: 3926.67 X/uL
  White Blood Cells WBC: 12330 µL⁻¹
Day 15, dose group 20
  Others Het/Poly: 31.67%
  Red Blood Cells HCT: 24.33%
  White Blood Cells BASO: 180.00 X/uL
  White Blood Cells EOS: 0.00 X/uL
  White Blood Cells LYMP + MONO: 5213.33 X/uL
  White Blood Cells NEUT: 2606.67 X/uL
  White Blood Cells WBC: 8000 µL⁻¹
Day 21, dose group 1
  Others Het/Poly: 28.33%
  Red Blood Cells HCT: 30.33%
  White Blood Cells BASO: 630.00 X/uL
  White Blood Cells EOS: 0.00 X/uL
  White Blood Cells LYMP + MONO: 7243.33 X/uL
  White Blood Cells NEUT: 3126.67 X/uL
  White Blood Cells WBC: 11000 µL⁻¹
Day 21, dose group 3
  Others Het/Poly: 29.67%
  Red Blood Cells HCT: 31.00%
  White Blood Cells BASO: 523.33 X/uL
  White Blood Cells EOS: 0.00 X/uL
  White Blood Cells LYMP + MONO: 6016.67 X/uL
  White Blood Cells NEUT: 2793.33 X/uL
  White Blood Cells WBC: 9330 µL⁻¹
Day 21, dose group 20
  Others Het/Poly: 35.50%
  Red Blood Cells HCT: 31.50%
  White Blood Cells BASO: 850.00 X/uL
  White Blood Cells EOS: 0.00 X/uL
  White Blood Cells LYMP + MONO: 6530.00 X/uL
  White Blood Cells NEUT: 4120.00 X/uL
  White Blood Cells WBC: 11500 µL⁻¹
Day 28, dose group 1
  Others Het/Poly: 56.33%
  Red Blood Cells HCT: 33.00%
  White Blood Cells BASO: 260.00 X/uL
  White Blood Cells EOS: 0.00 X/uL
  White Blood Cells LYMP + MONO: 2300.00 X/uL
  White Blood Cells NEUT: 4106.67 X/uL
  White Blood Cells WBC: 6670 µL⁻¹
Day 28, dose group 3
  Others Het/Poly: 59.00%
  Red Blood Cells HCT: 29.67%
  White Blood Cells BASO: 450.00 X/uL
  White Blood Cells EOS: 0.00 X/uL
  White Blood Cells LYMP + MONO: 3216.67 X/uL
  White Blood Cells NEUT: 5000.00 X/uL
  White Blood Cells WBC: 8670 µL⁻¹
Day 28, dose group 20
  Others Het/Poly: 44.00%
  Red Blood Cells HCT: 27.33%
  White Blood Cells BASO: 393.33 X/uL
  White Blood Cells EOS: 0.00 X/uL
  White Blood Cells LYMP + MONO: 3386.67 X/uL
  White Blood Cells NEUT: 3553.33 X/uL
  White Blood Cells WBC: 7330 µL⁻¹
Day 35, dose group 1
  Others Het/Poly: 33.00%
  Red Blood Cells HCT: 29.67%
  White Blood Cells BASO: 386.67 X/uL
  White Blood Cells EOS: 0.00 X/uL
  White Blood Cells LYMP + MONO: 4026.67 X/uL
  White Blood Cells NEUT: 2253.33 X/uL
  White Blood Cells WBC: 6670 µL⁻¹
Day 35, dose group 3
  Others Het/Poly: 31.00%
  Red Blood Cells HCT: 29.00%
  White Blood Cells BASO: 423.33 X/uL
  White Blood Cells EOS: 0.00 X/uL
  White Blood Cells LYMP + MONO: 4366.67 X/uL
  White Blood Cells NEUT: 2210.00 X/uL
  White Blood Cells WBC: 7000 µL⁻¹
Day 35, dose group 20
  Others Het/Poly: 34.67%
  Red Blood Cells HCT: 25.50%
  White Blood Cells BASO: 393.33 X/uL
  White Blood Cells EOS: 0.00 X/uL
  White Blood Cells LYMP + MONO: 4323.33 X/uL
  White Blood Cells NEUT: 2283.33 X/uL
  White Blood Cells WBC: 7000 µL⁻¹
Day 42, dose group 1
  Others Het/Poly: 31.33%
  Red Blood Cells HCT: 30.33%
  White Blood Cells BASO: 450.00 X/uL
  White Blood Cells EOS: 0.00 X/uL
  White Blood Cells LYMP + MONO: 6200.00 X/uL
  White Blood Cells NEUT: 3016.67 X/uL
  White Blood Cells WBC: 9670 µL⁻¹
Day 42, dose group 3
  Others Het/Poly: 34.67%
  Red Blood Cells HCT: 29.33%
  White Blood Cells BASO: 466.67 X/uL
  White Blood Cells EOS: 0.00 X/uL
  White Blood Cells LYMP + MONO: 5760.00 X/uL
  White Blood Cells NEUT: 3106.67 X/uL
  White Blood Cells WBC: 9330 µL⁻¹
Day 42, dose group 20
  Others Het/Poly: 35.00%
  Red Blood Cells HCT: 28.67%
  White Blood Cells BASO: 406.67 X/uL
  White Blood Cells EOS: 0.00 X/uL
  White Blood Cells LYMP + MONO: 4980.00 X/uL
  White Blood Cells NEUT: 3013.33 X/uL
  White Blood Cells WBC: 8670 µL⁻¹
Day 49, dose group 1
  Others Het/Poly: 27.33%
  Red Blood Cells HCT: 29.00%
  White Blood Cells BASO: 213.33 X/uL
  White Blood Cells EOS: 40.00 X/uL
  White Blood Cells LYMP + MONO: 5766.67 X/uL
  White Blood Cells NEUT: 2646.67 X/uL
  White Blood Cells WBC: 8670 µL⁻¹
Day 49, dose group 3
  Others Het/Poly: 34.33%
  Red Blood Cells HCT: 30.67%
  White Blood Cells BASO: 243.33 X/uL
  White Blood Cells EOS: 0.00 X/uL
  White Blood Cells LYMP + MONO: 5510.00 X/uL
  White Blood Cells NEUT: 2913.33 X/uL
  White Blood Cells WBC: 8670 µL⁻¹
Day 49, dose group 20
  Others Het/Poly: 43.33%
  Red Blood Cells HCT: 30.33%
  White Blood Cells BASO: 296.67 X/uL
  White Blood Cells EOS: 0.00 X/uL
  White Blood Cells LYMP + MONO: 4483.33 X/uL
  White Blood Cells NEUT: 3553.33 X/uL
  White Blood Cells WBC: 8330 µL⁻¹
